Source: ChEMBL document CHEMBL4007500, “Cyclic mu-opioid receptor ligands containing multiple N-methylated amino acid residues” (Bioorg Med Chem Lett, 2017)
Calls of active or inactive are those of the source. The calls are words filed in the database; no cut-off is given here.

Legend:
[1] = target: T1, Mu-type opioid receptor (Homo sapiens, UniProt P35372); assay: Agonist activity at human recombinant MOR expressed in CHO cells assessed as calcium mobilization by Fluo-4 AM based fluorescence analysis relative to EM2; format: functional, cell-based
[2] = target: Kappa-type opioid receptor (Cavia porcellus, UniProt P41144); assay: Displacement of [3H]nor-BNI from KOR in Dunkin Hartley guinea pig brain homogenates after 180 mins by liquid scintillation counting analysis
[3] = target: Mu-type opioid receptor (Rattus norvegicus, UniProt P33535); assay: Displacement of [3H]DAMGO from MOR in Wistar rat brain homogenates after 180 mins by liquid scintillation counting analysis
[4] = target: Kappa-type opioid receptor (Homo sapiens) (UniProt P41145); assay: Agonist activity at human recombinant KOR expressed in CHO cells assessed as calcium mobilization up to 1 uM by Fluo-4 AM based fluorescence analysis; format: functional, cell-based
[5] = target: T1, Mu-type opioid receptor; assay: Agonist activity at human recombinant MOR expressed in CHO cells assessed as calcium mobilization by Fluo-4 AM based fluorescence analysis; format: functional, cell-based
[6] = target: Delta-type opioid receptor (Homo sapiens) (UniProt P41143); assay: Agonist activity at human recombinant DOR expressed in CHO cells assessed as calcium mobilization up to 1 uM by Fluo-4 AM based fluorescence analysis; format: functional, cell-based
[7] = target: Delta-type opioid receptor (Rattus norvegicus, UniProt P33533); assay: Displacement of [3H][Ile5,6]deltorphin-2 from DOR in Wistar rat brain homogenates after 180 mins by liquid scintillation counting analysis
[8] = Stability of compound in Wistar rat brain homogenate assessed as compound remaining at 0.5 mM after 90 mins by RP-HPLC analysis; format: ADME, tissue-based; details: read-out: Stability

Chain of Kappa-type opioid receptor (P41144 whole entry): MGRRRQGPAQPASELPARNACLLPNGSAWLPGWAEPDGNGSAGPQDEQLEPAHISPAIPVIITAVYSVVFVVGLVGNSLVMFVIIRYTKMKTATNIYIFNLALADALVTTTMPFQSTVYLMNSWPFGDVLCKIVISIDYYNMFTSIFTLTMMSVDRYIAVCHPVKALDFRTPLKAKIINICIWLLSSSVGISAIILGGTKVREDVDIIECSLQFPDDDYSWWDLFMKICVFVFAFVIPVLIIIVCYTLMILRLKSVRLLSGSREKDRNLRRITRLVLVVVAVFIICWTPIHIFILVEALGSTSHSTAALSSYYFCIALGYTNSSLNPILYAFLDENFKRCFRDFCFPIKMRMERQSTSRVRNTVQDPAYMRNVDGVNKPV
Chain of Delta-type opioid receptor (P33533 whole entry): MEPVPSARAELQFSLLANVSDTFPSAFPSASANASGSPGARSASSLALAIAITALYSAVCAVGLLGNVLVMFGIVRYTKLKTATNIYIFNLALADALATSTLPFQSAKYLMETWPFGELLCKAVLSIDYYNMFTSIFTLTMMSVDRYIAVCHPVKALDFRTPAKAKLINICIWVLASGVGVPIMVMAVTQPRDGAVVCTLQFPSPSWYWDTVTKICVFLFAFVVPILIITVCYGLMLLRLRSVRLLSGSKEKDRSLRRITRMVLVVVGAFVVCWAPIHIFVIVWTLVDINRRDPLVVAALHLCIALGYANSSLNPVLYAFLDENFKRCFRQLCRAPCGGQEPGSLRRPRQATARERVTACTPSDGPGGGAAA
Chain of Kappa-type opioid receptor (Homo sapiens) (P41145 whole entry): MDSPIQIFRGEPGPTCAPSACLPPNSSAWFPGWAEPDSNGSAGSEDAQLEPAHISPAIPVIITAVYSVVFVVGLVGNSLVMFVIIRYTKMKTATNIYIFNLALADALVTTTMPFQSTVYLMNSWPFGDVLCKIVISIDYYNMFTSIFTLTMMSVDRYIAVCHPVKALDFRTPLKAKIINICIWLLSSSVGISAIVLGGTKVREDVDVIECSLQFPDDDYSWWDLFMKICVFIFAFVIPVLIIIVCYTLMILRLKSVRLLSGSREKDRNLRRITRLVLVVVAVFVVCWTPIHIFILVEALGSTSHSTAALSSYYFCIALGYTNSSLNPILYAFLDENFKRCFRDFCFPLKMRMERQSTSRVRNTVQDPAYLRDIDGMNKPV
Chain of Mu-type opioid receptor (Rattus norvegicus, UniProt P33535) (P33535 whole entry): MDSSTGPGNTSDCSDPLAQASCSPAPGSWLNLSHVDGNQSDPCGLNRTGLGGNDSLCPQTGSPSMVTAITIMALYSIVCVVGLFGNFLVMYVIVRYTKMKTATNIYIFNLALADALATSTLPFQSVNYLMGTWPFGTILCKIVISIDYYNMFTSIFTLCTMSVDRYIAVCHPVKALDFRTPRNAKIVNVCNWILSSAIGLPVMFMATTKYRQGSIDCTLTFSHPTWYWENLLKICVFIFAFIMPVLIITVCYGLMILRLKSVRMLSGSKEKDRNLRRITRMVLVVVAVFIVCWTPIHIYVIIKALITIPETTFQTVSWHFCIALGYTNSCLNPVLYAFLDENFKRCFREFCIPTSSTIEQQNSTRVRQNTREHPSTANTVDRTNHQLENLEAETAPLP
T1 sequence (P35372 whole entry): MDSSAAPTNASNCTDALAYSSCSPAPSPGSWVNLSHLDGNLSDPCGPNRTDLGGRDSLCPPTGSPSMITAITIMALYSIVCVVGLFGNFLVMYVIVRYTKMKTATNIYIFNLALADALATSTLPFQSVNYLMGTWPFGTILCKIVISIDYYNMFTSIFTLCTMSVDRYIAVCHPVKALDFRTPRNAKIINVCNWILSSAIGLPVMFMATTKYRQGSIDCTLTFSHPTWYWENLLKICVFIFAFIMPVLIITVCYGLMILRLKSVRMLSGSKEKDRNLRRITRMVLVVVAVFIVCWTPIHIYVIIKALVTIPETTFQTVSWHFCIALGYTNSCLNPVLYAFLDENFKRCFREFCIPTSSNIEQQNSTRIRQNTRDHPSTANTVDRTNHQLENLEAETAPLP
Chain of Delta-type opioid receptor (Homo sapiens) (P41143 whole entry): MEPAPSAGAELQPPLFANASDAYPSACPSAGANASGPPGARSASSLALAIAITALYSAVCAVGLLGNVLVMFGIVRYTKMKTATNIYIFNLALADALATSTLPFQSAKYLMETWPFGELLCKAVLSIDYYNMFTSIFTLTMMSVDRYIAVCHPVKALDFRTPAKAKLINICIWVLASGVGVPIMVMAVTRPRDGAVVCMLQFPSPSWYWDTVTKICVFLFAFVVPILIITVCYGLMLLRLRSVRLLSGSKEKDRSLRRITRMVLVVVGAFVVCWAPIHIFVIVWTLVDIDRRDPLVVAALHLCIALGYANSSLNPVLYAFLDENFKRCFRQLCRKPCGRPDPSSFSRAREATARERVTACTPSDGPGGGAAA

| Compound | Intrinsic activity [1] | Ki ([2]; read-out: Ki) [nM] | Ki ([3]; read-out: Ki) [nM] | Activity [4] | EC50 [5] [nM] | Activity [6] | Ki ([7]; read-out: Ki) [nM] | remaining at 1.5 h, 500 µM [8] [%] | Ki [2] | Ki [3] | Ki [7] | pEC50 [5] |
| --- | --- | --- | --- | --- | --- | --- | --- | --- | --- | --- | --- | --- |
| CN[C@@H](Cc1ccc(O)cc1)C(=O)N[C@@H]1CCCCNC(=O)C[C@@H](C(N)=O)NC(=O)[C@H](Cc2ccccc2)N(C)C(=O)[C@H](Cc2ccccc2)NC1=O | 0.93 | > 1000 | 0.73 | inactive | 10.2 | inactive | > 1000 | 97.2 |  |  |  |  |
| CN[C@@H](Cc1ccc(O)cc1)C(=O)N[C@@H]1CCCCNC(=O)C[C@@H](C(N)=O)NC(=O)[C@H](Cc2ccccc2)N(C)C(=O)CNC(=O)[C@H](Cc2ccccc2)N(C)C1=O |  | 519 | 76.5 |  |  |  | > 1000 | 97 |  |  |  |  |
| CN[C@@H](Cc1ccc(O)cc1)C(=O)N[C@@H]1CCCCNC(=O)C[C@@H](C(N)=O)NC(=O)[C@H](Cc2ccccc2)N(C)C(=O)[C@H](Cc2ccccc2)N(C)C1=O |  |  |  |  |  |  |  | 96.9 | Nd(Insoluble) | Nd(Insoluble) | Nd(Insoluble) |  |
| CN[C@H](Cc1ccc(O)cc1)C(=O)N[C@H]1CCCCNC(=O)C[C@@H](C(N)=O)NC(=O)[C@H](Cc2ccccc2)N(C)C(=O)CNC(=O)[C@H](Cc2ccccc2)N(C)C1=O |  |  |  | inactive |  | inactive |  |  |  |  |  | inactive |
| CN[C@@H](Cc1ccc(O)cc1)C(=O)N[C@@H]1CCCCNC(=O)C[C@@H](C(N)=O)NC(=O)CNC(=O)[C@H](Cc2ccccc2)N(C)C(=O)[C@H](Cc2ccccc2)N(C)C(=O)CNC1=O |  | > 1000 | 106 | inactive |  | inactive | > 1000 | 97.4 |  |  |  | inactive |
